The numbers were not newly measured in patent US7435725B2, “Oral compositions and methods for prevention, reduction and treatment of radiation injury” (The Quigly Corporation, priority 2001, dated 2008), which cites them from elsewhere.

The structures appear in SMILES notation.

Data set [1] relates to Salmonella Typhimurium TA98 and TA 1538. To be noted: Trp-P-2 (3-amino-1-methyl-5H-pyrido(4,3-b)indole).
The test system of data set [2] is E. coli B/r WP2 trp-.

Consider `[Ge+4].[O-2].[O-2]` [Germanium oxide], for which, in data set [1], the “reduction of mutation rate induced by Trp-P-2” value is given as 40-67 folds.
In the case of `O=C(O)C[CH2][Ge](=[O])[O][Ge](=[O])[CH2]CC(=O)O` [Ge-132], in data set [2], the “reduction of mutations due to γ-radiation” value is “twenty-fold”.
